Assay results reported in the supplement of paper PMC10949913.

What was measured:
Conditions in all cases: 48 h
CU-ACC1 [1] = test: AC50 viability; higher = less potent
Method in brief: (§1)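 Three adrenocortical carcinoma cell lines in 1,536-well plates received 23 nL of each library compound at 11 concentrations and were read with CellTiter-Glo after 48 h, with 15 minutes at room temperature before measuring luminescence. Vehicle and empty-well controls served for per-plate normalisation. AC50 and area under the curve were extracted from fitted concentration-response curves, discarding all curve classes other than inhibitory or non-responding.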

NCI-H295R [2] = test: AC50 viability; higher = less potent
Method in brief: as §1

CU-ACC1 [3] = test: area under concentration-response curve (viability) (AUC (a.u.)); higher = less active
Method in brief: as §1

CU-ACC2 = test: as above
Method in brief: as §1

NCI-H295R [4] = test: as above
Method in brief: as §1

Row | SMILES | AC50 viability (CU-ACC1 [1]) [µM] | AC50 viability (NCI-H295R [2]) [µM] | area under concentration-response curve (CU-ACC1 [3]) | area under concentration-response curve (CU-ACC2) | area under concentration-response curve (NCI-H295R [4])
1 | CC(C)(C)c1[nH]cnc1/C=c1\[nH]c(=O)/c(=C/c2ccccc2)[nH]c1=O | 18.6 | 0.0372 | 490 | 398 | 434
2 | Fc1ccc(-c2csc3ncnc(NCc4ccc5c(c4)OCO5)c23)cc1 | 3.32 | 20.9 | 390 | 532 | 427
3 | C=C1C(=O)O[C@H]2C[C@H](C)C(/C=C/C(C)=O)=CC[C@H]12 | 9.34 | 18.6 | 450 | 529 | 519
4 | CNC(=O)c1cc(Oc2ccc(NC(=O)Nc3ccc(Cl)c(C(F)(F)F)c3)c(F)c2)ccn1 | 37.2 | 20.9 | 436 | 596 | 545
5 | O=C1Nc2ccc(Cl)cc2[C@@](C#CC2CC2)(C(F)(F)F)O1 | 20.9 | 20.9 | 490 | 589 | 468
6 | Nc1n[n+]([O-])c2ccccc2[n+]1[O-] | 29.5 | 20.9 | 474 | 617 | 529
7 | C[C@H](NC(=O)c1sccc1OCc1ccc(Cl)cc1)c1ccccc1 | 10.5 | 20.9 | 456 | 571 | 504
8 | FC(F)c1nc2ccccc2n1-c1nc(N2CCOCC2)nc(N2CCOCC2)n1 | 0.59 | 0.934 | 413 | 487 | 399
9 | CC1=C(C)C2=C(S1)[N]3C(=NN=C3[C@H](CC(=O)OC(C)(C)C)/N=C2/C4=CC=C(Cl)C=C4)C | 18.6 | 16.6 | 432 | 553 | 520
10 | CCN(CCO)CCCOc1ccc2c(Nc3cc(CC(=O)Nc4cccc(F)c4)[nH]n3)ncnc2c1 | 23.5 | 16.6 | 390 | 569 | 483
11 | Cc1cc(Nc2ncnc3ccc(-c4ccc(CNCC[S+](C)(=O)[O-])o4)cc23)ccc1Oc1ccn2ncnc2c1 | 23.5 | 8.33 | 386 | 355 | 392
12 | N=C(N)c1ccc(OCCCCCOc2ccc(C(=N)N)cc2)cc1 | 13.2 | 14.8 | 437 | 561 | 453
13 | CC(C)(C)NC(=O)c1cncn1C1CCN(c2ccc(-c3nnc(C(F)(F)F)o3)cn2)CC1 | 1.66 | 7.42 | 381 | 539 | 475
14 | C=C(C)[C@H]1Cc2c(ccc3c2O[C@@H]2COc4cc(OC)c(OC)cc4[C@@H]2C3=O)O1 | 0.166 | 1.05 | 344 | 479 | 445
15 | COc1c(N2C[C@@H]3CCCN[C@@H]3C2)c(F)cc2c(=O)c(C(=O)O)cn(C3CC3)c12.Cl.O | 0.525 | 0.118 | 400 | 484 | 399
16 | COc1cc(OC2CCN(C)CC2)ccc1Nc1ncc2c(n1)n(C1CCCC1)c(=O)n2C | 26.3 | 23.5 | 447 | 619 | 528
17 | C[C@@H]1O[C@@H](O[C@@H]2C=C3CC[C@@H]4[C@H](CC[C@]5(C)[C@@H](c6ccc(=O)oc6)CC[C@]45O)[C@@]3(C)CC2)[C@H](O)[C@H](O)[C@H]1O | 0.0148 | 0.0332 | 219 | 307 | 277
18 | CC(C)C[C@H](NC(=O)[C@H](Cc1ccccc1)NC(=O)c1cnccn1)B(O)O | 0.0372 | 0.0263 | 290 | 327 | 345
19 | CN1CCN(c2ccc3nc(-c4cc(C(C)(C)C)c(OCCCC(=O)NCCCN=[N+]=[N-])c(C(C)(C)C)c4)[nH]c3c2)CC1 | 7.42 | 7.42 | 462 | 566 | 508
20 | Cc1nc(-c2cn3c(n2)-c2ccc(-c4cnn(C(C)(C)C(N)=O)c4)cc2OCC3)n(C(C)C)n1 | 0.132 | 0.934 | 414 | 528 | 458

Row | SMILES | AC50 viability (CU-ACC1 [1]) [µM] | AC50 viability (NCI-H295R [2]) [µM] | area under concentration-response curve (CU-ACC1 [3]) | area under concentration-response curve (CU-ACC2) | area under concentration-response curve (NCI-H295R [4])
21 | C/C(=N\Nc1nnc2c(n1)[nH]c1c(C)cccc12)c1ccccn1 | 2.35 | 9.34 | 403 | 533 | 415
22 | N#Cc1ccc(-c2c(-c3nnc[nH]3)sc(N3CCOCC3)c2C#N)c(F)c1 | 7.42 | 4.68 | 465 | 568 | 478
23 | CCc1cncnc1N1CCN(Cc2nc3cc(C(F)(F)F)ccc3[nH]2)CC1 | 20.9 | 20.9 | 438 | 590 | 502
24 | Cc1ccc(C(C)(O)c2nc3ccccc3s2)c(C)c1 (stereo not given) | 8.33 | 16.6 | 421 | 511 | 464
25 | CC(C)n1nc(-c2ccc3oc(N)nc3c2)c2c(N)ncnc21 | 0.0372 | 0.166 | 338 | 455 | 404
26 | CC1(C)OCCn2c1nc1c(N3CCOCC3)nc(-c3cnc(N)nc3)nc12 | 1.18 | 1.86 | 395 | 500 | 430
27 | CCOc1cc(CC(=O)N[C@@H](CC(C)C)c2ccccc2N2CCCCC2)ccc1C(=O)O | 0.0059 | 5.25 | 221 | 240 | 188
28 | CCNC(=O)C[C@@H]1\N=C(C2=CC=C(Cl)C=C2)/C3=C(C=CC(=C3)OC)[N]4C(=NN=C14)C | 13.2 | 8.33 | 423 | 500 | 457
29 | COC(=O)Nc1ccc(-c2nc(N3CCOCC3)c3cnn(C4CCN(C(=O)OC)CC4)c3n2)cc1 | 2.95 | 2.95 | 399 | 573 | 485
30 | COc1ncc(Nc2ncc([C@H](C)N3CCN([S+](C)(=O)[O-])CC3)cc2-c2nc(C)nc(N)n2)cc1F | 1.32 | 0.934 | 387 | 473 | 392
31 | Cn1cc(/C=C/C(=O)c2cccc(F)c2)cc1/C=C/C(=O)NO | 5.9 | 8.33 | 428 | 513 | 439
32 | FC(F)(F)c1ccc(C/N=c2\ccc(Cc3c[nH]c4ncccc34)c[nH]2)cc1 | 16.6 | 11.8 | 511 | 597 | 541
33 | COc1cc(OC)cc(N(CCNC(C)C)c2ccc3ncc(-c4cnn(C)c4)nc3c2)c1 | 23.5 | 18.6 | 499 | 603 | 526
34 | O=C(/C=C\n1cnc(-c2cc(C(F)(F)F)cc(C(F)(F)F)c2)n1)N1CC(F)(F)C1 | 1.32 | 0.59 | 448 | 467 | 456
35 | CCC[C@H](NC(=O)[C@@H]1[C@H]2CCC[C@H]2CN1C(=O)[C@@H](NC(=O)[C@@H](NC(=O)c1cnccn1)C1CCCCC1)C(C)(C)C)C(=O)C(=O)NC1CC1 | 0.00105 | 33.2 | 333 | 299 | 285
36 | Cc1nnn(C)c1-c1cnc2c3ccc(C(C)(C)O)cc3n([C@H](c3ccccc3)C3CCOCC3)c2c1 | 0.468 | 0.0166 | 416 | 482 | 425
37 | CC(C)(O)C[S+](=O)([O-])Nc1ccc2c(c1)CCN(C(=O)COc1cccnc1)C2 | 0.295 | 1.05 | 334 | 390 | 483
38 | CC(=O)Nc1cc(Oc2ccc3c(nc(Nc4ccc(F)cc4F)n3C)c2C)ccn1 | 18.6 | 11.8 | 484 | 544 | 482
39 | Cc1cnc(Nc2ccc(N3CCN(C)CC3)cc2)nc1Nc1cccc([S+](=O)([O-])NC(C)(C)C)c1 | 14.8 | 9.34 | 466 | 529 | 421
40 | O=C([O-])C[C@H](O)C[C@H](O)/C=C/c1c(C2CC2)nc2ccccc2c1-c1ccc(F)cc1 | 4.68 | 10.5 | 394 | 478 | 464

Row | SMILES | AC50 viability (CU-ACC1 [1]) [µM] | AC50 viability (NCI-H295R [2]) [µM] | area under concentration-response curve (CU-ACC1 [3]) | area under concentration-response curve (CU-ACC2) | area under concentration-response curve (NCI-H295R [4])
41 | C[S+](=O)([O-])N1CCc2c(-c3cnc(N)nc3)nc(N3CCOCC3)nc21 | 1.18 | 0.417 | 403 | 345 | 389
42 | CCN1C(=O)C\N=C/2N\C=C(/N=C12)C3=C(C)N=C(C=C3)C4=NN=C[NH]4 | 10.5 | 13.2 | 404 | 489 | 458
43 | COc1cc(/C=C/C(=O)CC(=O)/C=C/c2ccc(O)c(OC)c2)ccc1O | 23.5 | 26.3 | 548 | 591 | 545
44 | ONC(=O)C1=CC=C(C=C1)C/2=N/C3=CC=CC=C3OC4=C2C=CC=C4 | 16.6 | 16.6 | 362 | 507 | 557
45 | CCC[S+](=O)([O-])c1nc(NC2CC2)cc(-c2ccc3c(ccn3C3CC(C)(C)NC(C)(C)C3)c2)n1 | 3.93 | 3.12 | 490 | 580 | 530
46 | CC[C@@H](C)Nc1cc(C(=O)NC2CC3CCC(C2)N3c2ccc(C(=O)C3CC3)cn2)c(C)cc1C(N)=O (stereo not given in full) | 1.32 | 0.934 | 346 | 436 | 382
47 | CCCOc1ccc(CCc2nc3cc(-c4c(C)noc4C)ccc3n2CCN2CCOCC2)cc1 | 14.8 | 20.9 | 482 | 567 | 479
48 | COC1=C(OCCCN2CCOCC2)C=CC\3=C1/N=C(/NC(=O)C4=CN=C(N)N=C4)N5CC/N=C35 | 0.0382 | 0.108 | 431 | 542 | 452
49 | O=C1NC(=O)[C@@H](c2c[nH]c3ccccc23)[C@H]1c1cn2c3c(cccc13)CCC2 | 20.9 | 0.59 | 494 | 611 | 504
50 | O=C(Nc1cccnc1)N1CCC(Cc2cccc(Oc3ccc(C(F)(F)F)cn3)c2)CC1 | 5.25 | 18.6 | 406 | 559 | 500
51 | Cc1ccc(NC(=O)c2ccc(CN3CCNCC3)cc2)cc1Nc1nccc(-c2cccnc2)n1 | 6.61 | 26.3 | 496 | 600 | 518
52 | Cc1nc(N)ncc1-c1nc(N2CCOCC2)c2sc(C(C)(C)O)cc2n1 | 8.33 | 4.68 | 333 | 488 | 475
53 | CC(=O)Nc1ccc(C(=O)Nc2ccccc2N)cc1 | 7.42 | 18.6 | 413 | 408 | 445
54 | C[C@@H](Oc1ccc2[nH]nc(/C=C/c3cnn(CCO)c3)c2c1)c1c(Cl)cncc1Cl | 16.6 | 14.8 | 481 | 519 | 473
55 | Cc1cnc(NC(=O)Nc2cc(Br)c(C)cc2OC[C@@H]2CNCCO2)cn1 | 6.61 | 4.68 | 486 | 613 | 524
56 | NC1=NC=C(C=C1)C2=CC=C3N=CC\4=C(N(C(=O)\C=C4)C5=CC(=CC=C5)C(F)(F)F)C3=C2 | 0.235 | 0.0833 | 314 | 387 | 294
57 | C[C@@H](C(=O)Nc1ccc(Cl)cc1)[C@H]1CC[C@@H](c2ccnc3ccc(F)cc32)CC1 | 29.5 | 16.6 | 488 | 626 | 564
58 | COc1cc(OC)cc(N2CCN(C(=O)Nc3nc4cc(F)ccc4nc3OC)CC2)c1 | 23.5 | 16.6 | 503 | 556 | 454
59 | O=C(NCCCNC(=O)c1cccnc1O)c1cc(-c2ccccc2)on1 | 20.9 | 18.6 | 481 | 574 | 443
60 | COc1cc(C(=O)NC(=N)Nc2ccc(C)c(NC(=O)c3ccc(-c4ccccc4)cc3)c2)cc(OC)c1OC | 10.5 | 13.2 | 403 | 489 | 399
